According to patent US9809574B2, “Isoindoline or isoquinoline compounds, a process for their preparation and pharmaceutical compositions containing them” (LES LABORATOIRES SERVIER, priority 2013, dated 2017):

How the values were obtained:
[1] = system: RS4; 11 leukaemia cell line; assay: In vitro cytotoxicity, Microculture Tetrazolium Assay (MTT); type: cell-based; conditions: 11 cells exposed for 48 hours
Procedure: The cytotoxicity studies were carried out on the RS4; 11 leukaemia cell line and on H146 small Cell Lung Carcinoma cell line. The cells are distributed onto microplates and exposed to the test compounds for 48 hours. The cell viability is then quantified by a colorimetric assay, the Microculture Tetrazolium Assay (Cancer Res., 1987, 47, 939-942).

[2] = molecular target: Bcl-2 protein (histag-Bcl-2, UniProtKB P10415) (Homo sapiens (Human), UniProt P10415); assay: Inhibition of Bcl-2 by the fluorescence polarisation technique; type: binding; conditions: fluorescence polarisation test; incubation for 2 hours; read-out: IC50 (nM) Bcl-2 FP
Sequence of Bcl-2 protein (P10415 whole entry): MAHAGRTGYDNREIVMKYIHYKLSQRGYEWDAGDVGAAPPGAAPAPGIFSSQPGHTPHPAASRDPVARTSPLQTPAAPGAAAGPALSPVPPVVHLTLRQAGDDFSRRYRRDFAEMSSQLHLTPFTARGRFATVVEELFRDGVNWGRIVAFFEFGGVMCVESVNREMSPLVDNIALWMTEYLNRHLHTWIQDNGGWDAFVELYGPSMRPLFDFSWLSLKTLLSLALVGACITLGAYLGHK
Source text: For partial inhibitors, the percentage fluorescence polarisation inhibition for a given concentration of the test compound is indicated.

Compound | IC50 [2] | IC50 ([1]; Homo sapiens) | IC50 [1]
Cc1c(C(=O)N(C)c2ccc(O)cc2)cc(-c2cc3c(cc2C(=O)N2Cc4ccccc4C[C@H]2CN2CCN(C)CC2)CN(C(=O)Oc2cccc(C(=O)O)c2)CC3)n1C [Example 733, 3-(6-{4-[(4-Hydroxyphenyl)(methyl)carbamoyl]-1,5-dimethyl-1H-pyrrol-2-yl}-7-[(3S)-3-[(4-methylpiperazin-1-yl)methyl]-1,2,3,4-tetrahydroisoquinoline-2-carbonyl]-1,2,3,4-tetrahydroisoquinoline-2-carbonyloxy)benzoic acid] | 1.5 nM | > 150 nM | 
Cc1ccc(OC(=O)N2Cc3cc(C(=O)N4Cc5ccccc5C[C@H]4C)c(-c4cc(C(=O)N(C)c5ccc(O)cc5)c5n4CCCC5)cc3C2)cc1 [Example 168, 4-Methylphenyl 5-{1-[(4-hydroxyphenyl)(methyl)carbamoyl]-5,6,7,8-tetrahydroindolizin-3-yl}-6-[(3R)-3-methyl-1,2,3,4-tetrahydroisoquinoline-2-carbonyl]-2,3-dihydro-1H-isoindole-2-carboxylate] | 5.7 nM | 6.6 nM | 
CN(C(=O)c1cc(-c2cc3c(cc2C(=O)N2Cc4ccccc4C[C@H]2CN2CCOCC2)CN(C(=O)OC(C)(C)C)CC3)n2c1CCCC2)c1ccc(O)cc1 [Example 1, tert-Butyl 6-{1-[(4-hydroxyphenyl)(methyl)carbamoyl]-5,6,7,8-tetrahydroindolizin-3-yl}-7-[(3S)-3-(morpholin-4-ylmethyl)-1,2,3,4-tetrahydroisoquinoline-2-carbonyl]-1,2,3,4-tetrahydroisoquinoline-2-carboxylate] | 13 nM | 140 nM | 
Cc1c(C(=O)N(C)c2ccccc2)cc(-c2cc3c(cc2C(=O)N2Cc4ccccc4C[C@H]2C)CN(C(=O)Oc2cccc(CCC(=O)N(C)C)c2)CC3)n1C [Example 787, 3-[2-(Dimethylcarbamoyl)ethyl]phenyl 6-{1,5-dimethyl-4-[methyl(phenyl)carbamoyl]-1H-pyrrol-2-yl}-7-[(3R)-3-methyl-1,2,3,4-tetrahydroisoquinoline-2-carbonyl]-1,2,3,4-tetrahydroisoquinoline-2-carboxylate] | 5 nM | 6.2 nM | 
CCN(C(=O)c1cc(-c2cc3c(cc2C(=O)N2Cc4ccccc4C[C@H]2CN2CCOCC2)CN(C(=O)Oc2ccccc2)CC3)n(C)c1C)c1ccc(O)cc1 [Example 185, Phenyl 6-{4-[ethyl(4-hydroxyphenyl)carbamoyl]-1,5-dimethyl-1H-pyrrol-2-yl}-7-[(3S)-3-(morpholin-4-ylmethyl)-1,2,3,4-tetrahydroisoquinoline-2-carbonyl]-1,2,3,4-tetrahydroisoquinoline-2-carboxylate] | 3.7 nM | 4.5 nM | 
C[C@@H]1Cc2ccccc2CN1C(=O)c1cc2c(cc1-c1cc(C(=O)N(C)c3ccc(O)cc3)c3n1CCCC3)CN(C(=O)N(C)C(C)(C)C)C2 [Example 81, N-tert-Butyl-5-{1-[(4-hydroxyphenyl)(methyl)carbamoyl]-5,6,7,8-tetrahydroindolizin-3-yl}-N-methyl-6-[(3R)-3-methyl-1,2,3,4-tetrahydroisoquinoline-2-carbonyl]-2,3-dihydro-1H-isoindole-2-carboxamide] | 21 nM | > 150 nM | 
Cc1c(C(=O)N(C)c2ccccc2)cc(-c2cc3c(cc2C(=O)N2Cc4ccccc4C[C@H]2C)CN(C(=O)Oc2ccc(NCCN(C)C)cc2)CC3)n1C [Example 489, 4-{[2-(Dimethylamino)ethyl]amino}phenyl 6-{1,5-dimethyl-4-[methyl(phenyl)carbamoyl]-1H-pyrrol-2-yl}-7-[(3R)-3-methyl-1,2,3,4-tetrahydroisoquinoline-2-carbonyl]-1,2,3,4-tetrahydroisoquinoline-2-carboxylate] | 3.2 nM | 68 nM | 
Cc1c(C(=O)N(C)c2ccccc2)cc(-c2cc3c(cc2C(=O)N2Cc4ccccc4C[C@H]2CN2CCOCC2)CN(C(=O)Oc2ccc4cc[nH]c4c2)CC3)n1C [Example 629, 1H-Indol-6-yl 6-{1,5-dimethyl-4-[methyl(phenyl)carbamoyl]-1H-pyrrol-2-yl}-7-[(3S)-3-(morpholin-4-ylmethyl)-1,2,3,4-tetrahydroisoquinoline-2-carbonyl]-1,2,3,4-tetrahydroisoquinoline-2-carboxylate] | 7.2 nM | 9 nM | 
Cc1c(C(=O)N(C)c2ccc(O)cc2)cc(-c2cc3c(cc2C(=O)N2Cc4ccccc4C[C@H]2C)CN(C(=O)OC2CCC(N(C)C)CC2)CC3)n1C (stereo partly drawn) [Example 802, (1r,4r)-4-(Dimethylamino)cyclohexyl 6-{4-[(4-hydroxyphenyl)(methyl)carbamoyl]-1,5-dimethyl-1H-pyrrol-2-yl}-7-[(3R)-3-methyl-1,2,3,4-tetrahydroisoquinoline-2-carbonyl]-1,2,3,4-tetrahydroisoquinoline-2-carboxylate] | 4 nM |  | 99 nM

Further molecules by falling IC50 [2], results first:

IC50 [2] | Compound | IC50 ([1]; Homo sapiens) | IC50 [1]
55 nM | Cc1c(C(=O)N(C)c2ccc(O)cc2)cc(-c2cc3c(cc2C(=O)N2Cc4ccccc4C[C@H]2C)CN(C(=O)[C@@H](N)c2ccccc2)C3)n1C [Example 173, 5-(2-[(2S)-2-Amino-2-phenylacetyl]-6-{[(3R)-3-methyl-3,4-dihydroisoquinolin-2(1H)-yl]carbonyl}-2,3-dihydro-1H-isoindol-5-yl)-N-(4-hydroxyphenyl)-N,1,2-trimethyl-1H-pyrrole-3-carboxamide] | > 600 nM | 
33 nM | CCCCN(CCCC)C(=O)c1cc(-c2cc3c(cc2C(=O)N2CCc4ccccc4C2)CN(C(=O)Cc2ccccc2)CC3)n(C)c1C [Example 162, N,N-Dibutyl-1,2-dimethyl-5-[2-(2-phenylacetyl)-7-(1,2,3,4-tetrahydroisoquinoline-2-carbonyl)-1,2,3,4-tetrahydroisoquinolin-6-yl]-1H-pyrrole-3-carboxamide] | > 150 nM | 
27 nM | CCCCN(CCCC)C(=O)c1cc(-c2cc3c(cc2C(=O)N2Cc4ccccc4C[C@H]2C)CN(C(=O)Oc2ccccc2)CC3)n(C)c1C [Example 163, Phenyl 6-[4-(dibutylcarbamoyl)-1,5-dimethyl-1H-pyrrol-2-yl]-7-[(3R)-3-methyl-1,2,3,4-tetrahydroisoquinoline-2-carbonyl]-1,2,3,4-tetrahydroisoquinoline-2-carboxylate] | > 150 nM | 
12 nM | C[C@@H]1Cc2ccccc2CN1C(=O)c1cc2c(cc1-c1cc(C(=O)N(C)c3ccc(O)cc3)c3n1CCCC3)CCN(C(=O)OC(C)(C)C)C2 [Example 47, tert-Butyl 6-{1-[(4-hydroxyphenyl)(methyl)carbamoyl]-5,6,7,8-tetrahydroindolizin-3-yl}-7-[(3R)-3-methyl-1,2,3,4-tetrahydroisoquinoline-2-carbonyl]-1,2,3,4-tetrahydroisoquinoline-2-carboxylate] | 45 nM | 
9.4 nM | C[C@@H]1Cc2ccccc2CN1C(=O)c1cc2c(cc1-c1cc(C(=O)N(C)c3ccc(O)cc3)c3n1CCCC3)CCN(C(=O)N1CCC(c3ccccc3)C1)C2 (stereo partly drawn) [Example 67, N-(4-Hydroxyphenyl)-N-methyl-3-{7-[(3R)-3-methyl-1,2,3,4-tetrahydroisoquinoline-2-carbonyl]-2-(3-phenylpyrrolidine-1-carbonyl)-1,2,3,4-tetrahydroisoquinolin-6-yl}-5,6,7,8-tetrahydroindolizine-1-carboxamide] | 51 nM | 
6.4 nM | CN(C(=O)c1cc(-c2cc3c(cc2C(=O)N2Cc4ccccc4C[C@H]2CN2CCOCC2)CN(C(=O)COc2ccccc2)C3)n2ccccc12)c1ccc(O)cc1 [Example 166, N-(4-Hydroxyphenyl)-N-methyl-3-{6-[(3S)-3-(morpholin-4-ylmethyl)-1,2,3,4-tetrahydroisoquinoline-2-carbonyl]-2-(2-phenoxyacetyl)-2,3-dihydro-1H-isoindol-5-yl}indolizine-1-carboxamide] | 58 nM | 
4.9 nM | C[C@@H]1Cc2ccccc2CN1C(=O)c1cc2c(cc1-c1cc(C(=O)N(C)c3ccc(O)cc3)c3n1CCCC3)CCN(C(=O)Cc1ccc(N3CCN(C)CC3)cc1)C2 [Example 97, N-(4-Hydroxyphenyl)-N-methyl-3-{7-[(3R)-3-methyl-1,2,3,4-tetrahydroisoquinoline-2-carbonyl]-2-{2-[4-(4-methylpiperazin-1-yl)phenyl]acetyl}-1,2,3,4-tetrahydroisoquinolin-6-yl}-5,6,7,8-tetrahydroindolizine-1-carboxamide] | 15 nM | 
3.7 nM | C[C@@H]1Cc2ccccc2CN1C(=O)c1cc2c(cc1-c1cc(C(=O)N(C)c3ccc(O)cc3)c3n1CCCC3)CCN(C(=O)Oc1ccccc1)C2 [Example 46, Phenyl 6-{1-[(4-hydroxyphenyl)(methyl)carbamoyl]-5,6,7,8-tetrahydroindolizin-3-yl}-7-[(3R)-3-methyl-1,2,3,4-tetrahydroisoquinoline-2-carbonyl]-1,2,3,4-tetrahydroisoquinoline-2-carboxylate] | 2.8 nM | 
3.6 nM | Cc1c(C(=O)N(C)c2ccc(O)cc2)cc(-c2cc3c(cc2C(=O)N2Cc4ccccc4C[C@H]2C)CN(C(=O)Oc2ccc(CCC(=O)N(C)C)cc2)CC3)n1C [Example 804, 4-[2-(Dimethylcarbamoyl)ethyl]phenyl 6-{4-[(4-hydroxyphenyl)(methyl)carbamoyl]-1,5-dimethyl-1H-pyrrol-2-yl}-7-[(3R)-3-methyl-1,2,3,4-tetrahydroisoquinoline-2-carbonyl]-1,2,3,4-tetrahydroisoquinoline-2-carboxylate] | 2.2 nM | 
2.2 nM | Cc1c(C(=O)N(C)c2ccc(O)cc2)cc(-c2cc3c(cc2C(=O)N2Cc4ccccc4C[C@H]2C)CN(C(=O)Oc2cccc(CCC(=O)N(C)C)c2)CC3)n1C [Example 776, 3-[2-(Dimethylcarbamoyl)ethyl]phenyl 6-{4-[(4-hydroxyphenyl)(methyl)carbamoyl]-1,5-dimethyl-1H-pyrrol-2-yl}-7-[(3R)-3-methyl-1,2,3,4-tetrahydroisoquinoline-2-carbonyl]-1,2,3,4-tetrahydroisoquinoline-2-carboxylate] | 1.1 nM | 
